From ChEMBL document CHEMBL1201862, “PubChem BioAssay data set” (2004)
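Cultured in 96-well plates, cells were exposed to test compound for 48 hours across five concentrations. Abbreviation: GI50, concentration required for 50% inhibition of growth.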 The source made the active and inactive calls. No stated cut-off is given here; in the data, active = GI50 up to about 1.1 µM and inactive = higher.

Experiments:
Assay in all cases: NCI-60 cell line screen, 48 h
OVCAR-4 = test system: OVCAR-4
OVCAR-3 = test system: OVCAR-3
Hs-578T = test system: Hs-578T
NCI-H460 = test system: NCI-H460
TK-10 = test system: TK-10
U-251 = test system: U-251
NCI-H23 = test system: NCI-H23
786-0 = test system: 786-0
M14 = test system: M14
T47D = test system: T47D
SK-MEL-2 = test system: SK-MEL-2
HCT-15 = test system: HCT-15
RPMI-8226 = test system: RPMI-8226
MDA-MB-435 = test system: MDA-MB-435
MCF7 = test system: MCF7
MDA-MB-231 = test system: MDA-MB-231
Malme-3M = test system: Malme-3M
HOP-62 = test system: HOP-62
HCC 2998 = test system: HCC 2998
SNB-19 = test system: SNB-19
A498 = test system: A498
SN12C = test system: SN12C
SNB-75 = test system: SNB-75
BT-549 = test system: BT-549
MDA-N = test system: MDA-N
DU-145 = test system: DU-145
SF-268 = test system: SF-268
SK-MEL-28 = test system: SK-MEL-28
HOP-92 = test system: HOP-92
NCI/ADR-RES = test system: NCI/ADR-RES
LOX IMVI = test system: LOX IMVI
SF-539 = test system: SF-539
HT-29 = test system: HT-29
COLO 205 = test system: COLO 205
MOLT-4 = test system: MOLT-4
UACC-62 = test system: UACC-62
ACHN = test system: ACHN
UO-31 = test system: UO-31
OVCAR-8 = test system: OVCAR-8
UACC-257 = test system: UACC-257
NCI-H522 = test system: NCI-H522
KM12 = test system: KM12
PC-3 = test system: PC-3
SK-MEL-5 = test system: SK-MEL-5
EKVX = test system: EKVX
HCT-116 = test system: HCT-116
K562 = test system: K562
OVCAR-5 = test system: OVCAR-5
A549 = test system: A549
SK-OV-3 = test system: SK-OV-3
CAKI-1 = test system: CAKI-1
SW-620 = test system: SW-620
IGROV-1 = test system: IGROV-1
SR = test system: SR
SF-295 = test system: SF-295
NCI-H226 = test system: NCI-H226
CCRF-CEM = test system: CCRF-CEM

## CCOC(=O)C1=C(C#N)S(=O)(=O)c2c(oc(C)c2C)N1
OVCAR-4
  GI50: > 100 µM (inactive)
OVCAR-3
  GI50: > 100 µM (inactive)
Hs-578T
  GI50: > 100 µM (inactive)
NCI-H460
  GI50: > 100 µM (inactive)
TK-10
  GI50: > 100 µM (inactive)
U-251
  GI50: > 100 µM (inactive)
NCI-H23
  GI50: > 100 µM (inactive)
786-0
  GI50: > 100 µM (inactive)
M14
  GI50: > 100 µM (inactive)
T47D
  GI50: > 100 µM (inactive)
SK-MEL-2
  GI50: > 100 µM (inactive)
HCT-15
  GI50: > 100 µM
RPMI-8226
  GI50: > 100 µM (inactive)
MDA-MB-435
  GI50: > 100 µM (inactive)
MCF7
  GI50: > 100 µM (inactive)
MDA-MB-231
  GI50: > 100 µM (inactive)
Malme-3M
  GI50: > 100 µM (inactive)
HOP-62
  GI50: > 100 µM (inactive)
HCC 2998
  GI50: > 100 µM (inactive)
SNB-19
  GI50: > 100 µM (inactive)
A498
  GI50: > 100 µM (inactive)
SN12C
  GI50: > 100 µM (inactive)
SNB-75
  GI50: > 100 µM (inactive)
BT-549
  GI50: > 100 µM (inactive)
MDA-N
  GI50: > 100 µM (inactive)
DU-145
  GI50: > 100 µM (inactive)
SF-268
  GI50: > 100 µM (inactive)
SK-MEL-28
  GI50: > 100 µM (inactive)
HOP-92
  GI50: > 100 µM (inactive)
NCI/ADR-RES
  GI50: > 100 µM (inactive)
LOX IMVI
  GI50: > 100 µM (inactive)
SF-539
  GI50: > 100 µM (inactive)
HT-29
  GI50: > 100 µM (inactive)
COLO 205
  GI50: > 100 µM (inactive)
MOLT-4
  GI50: > 100 µM (inactive)
UACC-62
  GI50: > 100 µM (inactive)
ACHN
  GI50: > 100 µM (inactive)
UO-31
  GI50: > 100 µM (inactive)
OVCAR-8
  GI50: > 100 µM (inactive)
UACC-257
  GI50: > 100 µM (inactive)
NCI-H522
  GI50: > 100 µM (inactive)
KM12
  GI50: > 100 µM (inactive)
PC-3
  GI50: > 100 µM (inactive)
SK-MEL-5
  GI50: > 100 µM (inactive)
EKVX
  GI50: > 100 µM (inactive)
HCT-116
  GI50: > 100 µM (inactive)
K562
  GI50: > 100 µM (inactive)
OVCAR-5
  GI50: > 100 µM (inactive)
A549
  GI50: > 100 µM (inactive)
SK-OV-3
  GI50: > 100 µM (inactive)
CAKI-1
  GI50: > 100 µM (inactive)
SW-620
  GI50: > 100 µM (inactive)
IGROV-1
  GI50: > 100 µM (inactive)
SR
  GI50: > 100 µM (inactive)
SF-295
  GI50: > 100 µM (inactive)
NCI-H226
  GI50: > 100 µM (inactive)

## CCOC1CN(C)/C(=N\c2cccc3ccccc23)S1 (configuration not stated)
OVCAR-4
  GI50: > 10 µM (inactive)
OVCAR-3
  GI50: > 10 µM (inactive)
Hs-578T
  GI50: > 10 µM (inactive)
NCI-H460
  GI50: > 10 µM (inactive)
TK-10
  GI50: > 10 µM (inactive)
U-251
  GI50: > 10 µM (inactive)
NCI-H23
  GI50: > 10 µM (inactive)
786-0
  GI50: > 10 µM (inactive)
M14
  GI50: > 10 µM (inactive)
T47D
  GI50: > 10 µM (inactive)
HCT-15
  GI50: > 10 µM
RPMI-8226
  GI50: > 10 µM (inactive)
MDA-MB-435
  GI50: > 10 µM (inactive)
MCF7
  GI50: > 10 µM (inactive)
MDA-MB-231
  GI50: > 10 µM (inactive)
Malme-3M
  GI50: > 10 µM (inactive)
HOP-62
  GI50: > 10 µM (inactive)
HCC 2998
  GI50: > 10 µM (inactive)
SNB-19
  GI50: > 10 µM (inactive)
A498
  GI50: > 10 µM (inactive)
SN12C
  GI50: > 10 µM (inactive)
SNB-75
  GI50: > 10 µM (inactive)
BT-549
  GI50: > 10 µM (inactive)
MDA-N
  GI50: > 10 µM (inactive)
DU-145
  GI50: > 10 µM (inactive)
SF-268
  GI50: > 10 µM (inactive)
SK-MEL-28
  GI50: > 10 µM (inactive)
HOP-92
  GI50: > 10 µM (inactive)
NCI/ADR-RES
  GI50: > 10 µM (inactive)
LOX IMVI
  GI50: > 10 µM (inactive)
SF-539
  GI50: > 10 µM (inactive)
HT-29
  GI50: > 10 µM (inactive)
COLO 205
  GI50: > 10 µM (inactive)
CCRF-CEM
  GI50: > 10 µM (inactive)
MOLT-4
  GI50: > 10 µM (inactive)
UACC-62
  GI50: > 10 µM (inactive)
ACHN
  GI50: > 10 µM (inactive)
UO-31
  GI50: > 10 µM (inactive)
OVCAR-8
  GI50: > 10 µM (inactive)
UACC-257
  GI50: > 10 µM (inactive)
NCI-H522
  GI50: > 10 µM (inactive)
KM12
  GI50: > 10 µM (inactive)
PC-3
  GI50: > 10 µM (inactive)
SK-MEL-5
  GI50: > 10 µM (inactive)
EKVX
  GI50: > 10 µM (inactive)
HCT-116
  GI50: > 10 µM (inactive)
K562
  GI50: > 10 µM (inactive)
OVCAR-5
  GI50: > 10 µM (inactive)
A549
  GI50: > 10 µM (inactive)
SK-OV-3
  GI50: > 10 µM (inactive)
CAKI-1
  GI50: > 10 µM (inactive)
SW-620
  GI50: > 10 µM (inactive)
IGROV-1
  GI50: > 10 µM (inactive)
SR
  GI50: > 10 µM (inactive)
SF-295
  GI50: > 10 µM (inactive)
NCI-H226
  GI50: > 10 µM (inactive)
